≈ marks a conversion by molar mass, not a printed value.
Columns and labels:
Type in all cases: functional
Xanthomonas campestris = test: Antibacterial activity against Xanthomonas campestris
Xanthomonas oryzae = test: Antibacterial activity against Xanthomonas oryzae
Staphylococcus aureus [1] = test: Antibacterial activity against methicillin-resistant Staphylococcus aureus ATCC 43300 assessed as reduction in bacterial growth measured for 12 hrs by CLSI protocol based broth microdilution method
Acinetobacter baumannii = test: Antibacterial activity against Acinetobacter baumannii ATCC 19606 assessed as reduction in microbial growth by CLSI protocol based broth micro-dilution method
Staphylococcus aureus [2] = test: Antibacterial activity against methicillin-resistant Staphylococcus aureus MB5393 assessed as reduction in bacterial growth incubated for 18 to 20 hrs by broth micro-dilution method; details: time 18-20 hrs
Bacillus cereus = test: Antibacterial activity against Bacillus cereus
Streptococcus suis = test: Antibacterial activity against Streptococcus suis SC19 assessed as reduction in bacterial growth by CLSI protocol based MHB micro-silution method
Staphylococcus aureus [3] = test: Antibacterial activity against Staphylococcus aureus ATCC 25923 assessed as reduction in bacterial growth by CLSI protocol based MHB micro-silution method
[4] = tested on: Erysipelothrix rhusiopathiae; test: Antibacterial activity against Erysipelothrix rhusiopathiae WH13013 assessed as reduction in bacterial growth by CLSI protocol based MHB micro-silution method
Staphylococcus aureus [5] = test: Antibacterial activity Staphylococcus aureus ATCC 25923 assessed as reduction in bacterial growth
Bacillus subtilis [6] = test: Antibacterial activity Bacillus subtilis ATCC 49343 assessed as reduction in bacterial growth
Escherichia coli [7] = test: Antibacterial activity Escherichia coli ATCC 8739 assessed as reduction in bacterial growth
Staphylococcus aureus [8] = test: Antibacterial activity against Staphylococcus aureus ATCC 25923 assessed as reduction in microbial growth
Staphylococcus aureus [9] = test: Antibacterial activity against Staphylococcus aureus ATCC 33592 assessed as reduction in microbial growth
Bacillus subtilis [10] = test: Antibacterial activity against Bacillus subtilis ATCC 6633 assessed as reduction in microbial growth
Staphylococcus aureus [11] = test: Antibacterial activity against Staphylococcus aureus ATCC 33591
Enterococcus faecalis [12] = test: Antibacterial activity against Vancomycin-resistant Enterococcus faecalis ATCC 51299
Escherichia coli [13] = test: Antibacterial activity against […] Escherichia coli ATCC 25922 assessed as reduction in bacterial growth measured for 12 hrs by CLSI protocol based broth microdilution method
Staphylococcus aureus [14] = test: Antimicrobial activity against Staphylococcus aureus ATCC 29213 assessed as reduction in microbial growth incubated for 16 hrs by CLSI protocol based Mueller-Hinton broth micro-dilution method
[15] = tested on: Staphylococcus epidermidis; test: Antimicrobial activity against Staphylococcus epidermidis ATCC 12228 assessed as reduction in microbial growth incubated for 16 hrs by CLSI protocol based Mueller-Hinton broth micro-dilution method
Micrococcus luteus = test: Antibacterial activity against Micrococcus luteus ML01 assessed as reduction in bacterial growth incubated for 24 to 48 hrs by serial dilution method; details: time 24-48 hrs
Staphylococcus aureus [16] = test: Antibacterial activity against methicillin-Staphylococcus aureus ATCC 29213 assessed as reduction in bacterial growth by broth micro-dilution method
Kocuria rhizophila = test: Antimicrobial activity against Kocuria rhizophila ATCC 9341 assessed as reduction in microbial growth
Enterococcus faecalis [17] = test: Antibacterial activity against Enterococcus faecalis ATCC 29212 assessed as reduction in microbial growth by CLSI protocol based Mueller-Hinton broth micro-dilution method
Staphylococcus aureus [18] = test: Antimicrobial activity against Staphylococcus aureus ATCC 25913 assessed as reduction in bacterial growth by CLSI protocol based Mueller-Hinton broth micro-dilution method

SMILES: CO[C@H]1/C=C\C=C(/C)C(=O)NC2=CC(=O)C(O)=C(C[C@@H](C)C[C@H](OC)[C@H](O)[C@@H](C)/C=C(\C)[C@@H]1OC(N)=O)C2=O
- MIC (Xanthomonas campestris): 0.25 µg/mL (≈ 0.457 µM)
- MIC (Xanthomonas oryzae): 0.125 µg/mL (≈ 0.229 µM)

SMILES: CC(=O)c1cc(C)c(C)n1CCc1c[nH]c2ccccc12
- MIC (Staphylococcus aureus [1]): 25 µg/mL (≈ 89.2 µM)

SMILES: COc1cc(-c2ccccn2)nc(/C=N/O)c1S(C)(=O)=O
- MIC (Acinetobacter baumannii): 128 µg/mL

SMILES: CC[C@@H](/C=C/[C@@H]1C/C=C(\C)[C@@H](O)[C@@H](C)[C@H](O[C@H]2O[C@H](CO)[C@H](O)[C@@H](O)[C@H]2O)C[C@@H](O)[C@@H](C)[C@H](O)C[C@@H]2C[C@H](O)[C@@H](O)[C@](O)(C[C@@H](O[C@H]3O[C@@H](C)[C@H](O)[C@@H](O[C@H]4C[C@H](N)[C@@H](O)[C@@H](C)O4)[C@@H]3O[C@H]3O[C@@H](C)[C@H](O)[C@@H](O)[C@@H]3O)[C@@H](C)/C=C/[C@@H](O)C[C@@H](O)[C@@H](C)/C=C/C(=O)O1)O2)[C@@H](O)[C@@H](C)[C@H](CC)O[C@H]1C[C@](C)(N)[C@H](O)[C@H](C)O1
- MIC (Staphylococcus aureus [2]): 2 µg/mL (≈ 1.26 µM)

SMILES: CC1=C(CC2=C(O)C(=O)c3cc(O)c(C)c(O)c3C2=O)CCC(C)(C)C1
- MIC (Bacillus cereus): 6.25 µg/mL (≈ 17.5 µM)

SMILES: C[C@@H](O)Cc1cc(O)cc2c1C(=O)c1c(O)ccc(O)c1C2=O
- MIC (Streptococcus suis): 12.5 µg/mL (≈ 39.8 µM)
- MIC (Staphylococcus aureus [3]): 0.78 µg/mL (≈ 2.48 µM)
- MIC [4]: 6.25 µg/mL (≈ 19.9 µM)

SMILES: C=C(C)[C@@H]1CC[C@H](C)[C@H]2CC/C(C)=C/CC/C(C)=C/[C@H]21
- MIC (Staphylococcus aureus [5]): 86.9 µg/mL (≈ 319 µM)
- MIC (Bacillus subtilis [6]): 48.4 µg/mL (≈ 178 µM)
- MIC (Escherichia coli [7]): 133 µg/mL (≈ 488 µM)

SMILES: CC[C@H](C)[C@@H]1NC(=O)[C@@H](Cc2c[nH]c3cc(Br)ccc23)NC(=O)[C@@H](Cc2c[nH]c3ccccc23)NC(=O)[C@@H](CO)NC(=O)[C@@H](CCC(=O)O)NC(=O)[C@@H](C(C)C)NC1=O
- MIC (Staphylococcus aureus [8]): 6.3 µg/mL
- MIC (Staphylococcus aureus [9]): 6.3 µg/mL
- MIC (Bacillus subtilis [10]): 1.6 µg/mL

SMILES: COc1cc2oc3c(O)c4c(c(O)c3c(=O)c2cc1O)-c1c(cc2cc(C)n(CCO)c(=O)c2c1O)CC4
- MIC (Staphylococcus aureus [11]): 0.25 µg/mL (≈ 0.483 µM)
- MIC (Enterococcus faecalis [12]): 0.25 µg/mL (≈ 0.483 µM)

SMILES: CCC[C@@H](O)Cc1cc(O)cc2c1C(=O)c1c(O)ccc(O)c1C2=O
- MIC (Streptococcus suis): 1.56 µg/mL (≈ 4.56 µM)
- MIC (Staphylococcus aureus [3]): 1.56 µg/mL (≈ 4.56 µM)

SMILES: CC(=O)NCCc1c(CC2c3ccccc3[C@]3(O)CCN(C(C)=O)[C@@]23O)[nH]c2ccccc12 (stereo partly specified)
- MIC (Staphylococcus aureus [1]): 25 µg/mL (≈ 55.9 µM)
- MIC (Escherichia coli [13]): 13 µg/mL (≈ 29 µM)

SMILES: COc1cc2oc3c(c(=O)c2cc1O)C(=O)C1=C(CCc2cc4cc(C)n(CCO)c(=O)c4c(O)c21)C3=O
- MIC (Staphylococcus aureus [11]): 0.12 µg/mL (≈ 0.233 µM)
- MIC (Enterococcus faecalis [12]): 0.25 µg/mL (≈ 0.485 µM)

SMILES: C/C=C1\NC(=O)[C@@H](CC)NC(=O)CNC(=O)[C@@](C)(C(C)=O)NC(=O)[C@H](Cc2c[nH]c3ccc(O)c(OC)c23)NC(=O)c2csc(n2)[C@@H](C)NC(=O)CNC1=O
- MIC (Staphylococcus aureus [14]): 200 µg/mL
- MIC [15]: 12.5 µM

SMILES: C/C=C1\NC(=O)[C@@H](C)NC(=O)CNC(=O)[C@@](C)(C(C)=O)NC(=O)[C@H](Cc2c[nH]c3cccc(OC)c23)NC(=O)c2csc(n2)[C@@H](C)NC(=O)CNC1=O
- MIC (Staphylococcus aureus [14]): 12.5 µg/mL
- MIC [15]: 50 µM

SMILES: CC(=O)NCCc1c(CN2c3ccccc3[C@@]3(O)CCN(C(C)=O)[C@]23O)[nH]c2ccccc12
- MIC (Staphylococcus aureus [1]): 7 µg/mL (≈ 15.6 µM)
- MIC (Escherichia coli [13]): 25 µg/mL (≈ 55.7 µM)

SMILES: O=C1NC(=O)C(c2c[nH]c3cc(Cl)c(Cl)cc23)=C1c1c[nH]c2ccc(Cl)cc12
- MIC (Micrococcus luteus): 0.5 µg/mL (≈ 1.16 µM)
- MIC (Staphylococcus aureus [16]): 1 µg/mL (≈ 2.32 µM)

SMILES: CC(C)C[C@H](NC(=O)/C=N/O)[C@@H](O)[C@@H](C)C(=O)O
- MIC (Kocuria rhizophila): 50 µg/mL

SMILES: C[C@@H](O)[C@@H]1CC[C@H](c2ccc(O)c3c2C(=O)[C@@]24O[C@@]2([C@@H](C)O[C@@H]2CC(=O)O[C@@H]24)[C@H]3O)N1C
- MIC (Enterococcus faecalis [17]): 40 µg/mL
- MIC (Staphylococcus aureus [18]): 40 µg/mL (≈ 89.8 µM)

SMILES: CC[C@H]1NC(=O)CNC(=O)[C@@](C)(C(C)=O)NC(=O)[C@H](Cc2c[nH]c3cccc(OC)c23)NC(=O)c2csc(n2)[C@@H](C)NC(=O)CNC(=O)/C(=C/CO)NC1=O
- MIC (Staphylococcus aureus [14]): 25 µg/mL
- MIC [15]: 1.6 µM
